Values quoted from earlier work as cited in paper PMC8966651, “PKPD Modeling of the Inoculum Effect of Acinetobacter baumannii on Polymyxin B in vivo” (Frontiers in Pharmacology, 2022).
Where a name gives a salt, the structure may show the parent alone. Bridge positions count the residues as written; N and C are the ends. Square brackets hold non-standard residues; d marks the D form. Peptide text beside a SMILES is read from it. * marks the point of attachment. X1 = CC[C@H](C)CCCCC(=O)*; Dab = NCC[C@H](N)C(=O)O

Details: SC, highest dose 32 mg/kg; ref Landersdorfer et al., 2018; cited from earlier work
Procedure: These new study results can be compared with those previously obtained in relatively similar conditions, at least from PK standpoint ([Landersdorfer et al., 2018]). In both studies PMB was administered subcutaneously to neutropenic mice infected with K. pneumoniae ([Landersdorfer et al., 2018]) or A. baumannii, leading to saturable absorption rate. However although Landersdorfer et al. used a model with parallel linear and saturable absorption, an Emax model was sufficient to provide satisfactory fit of our data. Noticeably, while this nonlinear absorption was important to consider for PK and ...

**Q.** With CC[C@H](C)CCCCC(=O)N[C@@H](CCN)C(=O)N[C@H](C(=O)N[C@@H](CCN)C(=O)N[C@H]1CCNC(=O)[C@H]([C@@H](C)O)NC(=O)[C@H](CCN)NC(=O)[C@H](CCN)NC(=O)[C@H](CC(C)C)NC(=O)[C@@H](Cc2ccccc2)NC(=O)[C@H](CCN)NC1=O)[C@@H](C)O [PMB, Polymyxin B sulfate] (X1-[Dab]T[Dab][Dab][Dab][dF]L[Dab][Dab]T; lactam 4-C) as the compound, how does the “peak concentrations at the highest dose” value read?
**A.** The value was about 20 mg/L.
